From ChEMBL document CHEMBL5725742, “Imidazopyridazine derivatives as PI3KB inhibitors” (2018)

Columns and labels:
[1] = (§1) KINOMEscan Enzyme Binding Assays: Kinase enzyme binding affinities of compounds disclosed herein were determined using the KINOMEscan technology performed by DiscoveRx Corporation, San Diego, Calif., USA (www.kinomescan.com).
[2] = molecular target: Phosphatidylinositol 4,5-bisphosphate 3-kinase catalytic subunit gamma isoform (Homo sapiens, UniProt P48736); test: as §1
[3] = molecular target: T1, Phosphatidylinositol 4,5-bisphosphate 3-kinase catalytic subunit delta isoform (Homo sapiens, UniProt O00329); test: as §1
T1 sequence (O00329 whole entry): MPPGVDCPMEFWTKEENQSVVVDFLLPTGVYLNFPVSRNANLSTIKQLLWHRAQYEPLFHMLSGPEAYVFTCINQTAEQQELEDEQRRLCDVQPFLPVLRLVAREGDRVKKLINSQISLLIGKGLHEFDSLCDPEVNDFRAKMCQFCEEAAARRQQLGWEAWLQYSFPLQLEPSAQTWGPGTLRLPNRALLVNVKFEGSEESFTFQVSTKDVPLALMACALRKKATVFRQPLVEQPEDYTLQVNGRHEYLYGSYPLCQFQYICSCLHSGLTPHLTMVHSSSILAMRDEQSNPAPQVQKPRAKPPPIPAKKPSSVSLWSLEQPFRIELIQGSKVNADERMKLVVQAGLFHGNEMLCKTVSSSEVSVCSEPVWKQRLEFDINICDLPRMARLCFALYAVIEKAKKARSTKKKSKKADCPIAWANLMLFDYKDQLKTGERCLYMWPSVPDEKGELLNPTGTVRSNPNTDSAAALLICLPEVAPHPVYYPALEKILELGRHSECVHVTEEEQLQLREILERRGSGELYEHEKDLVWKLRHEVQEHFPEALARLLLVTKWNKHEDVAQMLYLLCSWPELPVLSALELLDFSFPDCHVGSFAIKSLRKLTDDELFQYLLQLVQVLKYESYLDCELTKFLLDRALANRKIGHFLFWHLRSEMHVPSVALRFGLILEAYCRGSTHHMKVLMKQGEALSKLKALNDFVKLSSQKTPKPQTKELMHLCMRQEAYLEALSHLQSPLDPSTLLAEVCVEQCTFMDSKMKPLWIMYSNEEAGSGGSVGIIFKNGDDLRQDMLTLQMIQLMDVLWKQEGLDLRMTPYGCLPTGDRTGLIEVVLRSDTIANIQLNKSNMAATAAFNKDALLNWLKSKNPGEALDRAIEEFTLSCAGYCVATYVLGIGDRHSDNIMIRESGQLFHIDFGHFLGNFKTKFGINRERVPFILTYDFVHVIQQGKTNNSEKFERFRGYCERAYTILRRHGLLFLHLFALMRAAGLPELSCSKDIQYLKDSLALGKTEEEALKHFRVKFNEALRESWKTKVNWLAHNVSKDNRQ

Sequence of Phosphatidylinositol 4,5-bisphosphate 3-kinase catalytic subunit gamma isoform (P48736 whole entry, canonical isoform): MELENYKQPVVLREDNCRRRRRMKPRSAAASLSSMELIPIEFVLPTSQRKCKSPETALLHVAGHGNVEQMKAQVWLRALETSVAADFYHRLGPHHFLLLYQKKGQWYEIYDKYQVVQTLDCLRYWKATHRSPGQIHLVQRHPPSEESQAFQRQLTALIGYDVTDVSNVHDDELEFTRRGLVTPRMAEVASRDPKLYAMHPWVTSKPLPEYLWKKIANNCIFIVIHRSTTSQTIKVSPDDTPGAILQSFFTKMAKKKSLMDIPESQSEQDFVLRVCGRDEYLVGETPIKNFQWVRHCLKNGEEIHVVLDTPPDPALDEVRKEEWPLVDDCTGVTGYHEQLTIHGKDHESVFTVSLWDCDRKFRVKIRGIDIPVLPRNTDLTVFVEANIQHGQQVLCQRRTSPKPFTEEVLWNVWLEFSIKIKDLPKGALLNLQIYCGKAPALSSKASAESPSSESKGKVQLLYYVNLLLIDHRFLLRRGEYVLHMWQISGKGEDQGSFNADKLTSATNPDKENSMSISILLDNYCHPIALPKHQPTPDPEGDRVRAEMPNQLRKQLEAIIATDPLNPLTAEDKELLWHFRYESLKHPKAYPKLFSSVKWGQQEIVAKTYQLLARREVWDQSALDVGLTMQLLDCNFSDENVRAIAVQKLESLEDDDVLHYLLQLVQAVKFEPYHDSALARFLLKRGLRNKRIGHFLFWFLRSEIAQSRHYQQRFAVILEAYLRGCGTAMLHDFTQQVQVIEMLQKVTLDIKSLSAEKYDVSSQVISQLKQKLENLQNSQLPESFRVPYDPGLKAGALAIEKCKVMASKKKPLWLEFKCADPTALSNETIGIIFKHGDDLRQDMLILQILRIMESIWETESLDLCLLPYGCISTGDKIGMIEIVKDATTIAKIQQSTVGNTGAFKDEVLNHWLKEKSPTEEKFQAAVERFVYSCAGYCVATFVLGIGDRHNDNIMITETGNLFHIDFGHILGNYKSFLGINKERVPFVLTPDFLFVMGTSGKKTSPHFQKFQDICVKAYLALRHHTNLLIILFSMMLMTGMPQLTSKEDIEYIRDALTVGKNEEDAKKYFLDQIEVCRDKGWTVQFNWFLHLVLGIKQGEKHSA

SMILES | Kd [1] [µM] | Kd [2] [µM] | Kd [3] [µM]
CC(CO)NCc1c(F)cccc1Cc1c(CO)nc2c(N)cc(N3CCOCC3)nn12 (stereo not given) | > 30.2 |  | 
CCc1c(F)cccc1Cc1c(CNCCO)nc2c(N)cc(N3CCOCC3)nn12 |  | 0.724 | 0.427
Cc1c(Cc2c(CO)nc3c(-c4cnc[nH]4)cc(N4CCOCC4)nn23)cccc1C(F)(F)F |  | 1.76 | 0.08
